The conditions of series [1]: cited from earlier work.
For series [2] the following is noted: cited from earlier work; for pruritus: placebo 38%.
For series [3] the following is noted: cited from earlier work. This is another data set of the same source.
The conditions of series [4]: cited from earlier work. This is another data set of the same source.
In series [5] the test system is mouse model of NASH. The series is described as follows: mouse model of NASH and fibrosis induced by streptozocin and high fat diet. It counts as in vivo, C59BL/6J mice. The conditions noted are these: for liver enzyme AST / liver enzyme ALP: OCA; for NAS score: alone or in combination. On the procedure:
We have utilized a well validated mice model in which the NASH and fibrosis was induced by sequential induction of diabetes mellitus and a high fat diet (14). On day 2, C59BL/6J mice were injected with streptozocin, then treated with high fat diet from week 4 until week 9. The intervention treatment started from week 5 until week 9. On week 9, these mice were euthanized.
NAS scores were determined according to the consensus by Nonalcoholic Steatohepatitis Clinical Research Network (13)
Fibrosis scores were determined according to the consensus by Nonalcoholic Steatohepatitis Clinical Research Network (13).

For series [6] the following is noted: HIV patients with HCV infection; cited from earlier work.
Series [7] deals with CCR5. The conditions noted are these: animal model; cited from earlier work.
For series [8] the following is noted: recent studies; cited from earlier work.
[9] abbreviates: FIG. 7B, MK-0812, alone or together.

“Also recorded” adds a separate entry of the source. Read-outs that look alike come from different tables or passages of the source.

In the case of `CC[C@H]1[C@@H](O)[C@@H]2[C@H](CC[C@]3(C)[C@@H]([C@H](C)CCC(=O)O)CC[C@@H]23)[C@@]2(C)CC[C@@H](O)C[C@@H]12` [OCA, 6 α-ethyl-chemodeoxycholic acid], the bile duct histology result in series [1] (26-week oral, rats) was “bile duct hyperplasia”. Also, in series [1] (26-week oral, rats), the clinical chemistry parameters result was “increases in ALT, AST and ALP”. Further, in series [1] (26-week oral, rats), the liver weight result was “increased liver weight”. Further, in series [1] (rat, in vivo), the “safety margin relative to recommended human dose” value is listed as 2.3 fold. Besides, the values for the pruritus in series [2] (10 mg once daily) and in series [2] (titration regimen) were 56% and 70%, respectively. Further, the HDL entry in series [2] (dose related) was “dose related reduction in HDL; also recorded: reduction of HDL”. In addition, the severe pruritus in series [2] (patients receiving OCA) was 19-23%. Besides, the frequency of pruritus entry in series [2] (reported frequency) was “up to 80%”. Also, the ALT levels result in series [3] (9-month oral, dogs) is given as “elevated ALT levels”. Further, the “clinical signs of toxicity that could be associated with liver function” value in series [3] (dog, in vivo, po) is “yellow discoloration of skin, mucous membrane, and eyes”. Moreover, the “exposure-adjusted incidence for all serious and otherwise clinically significant liver-related adverse reactions and isolated elevations in liver biochemical test” value in series [4] (10 mg group, placebo 2.4) is on record as 5.2 per 100 patient exposure years (PEY); in series [4] (25 mg group) it was 19.8%; in series [4] (50 mg group), 54.5%. In addition, the “liver enzyme AST” value in series [5] (FIG. 7A, MVC, alone or together) is “elevation in AST and ALP liver enzymes; also recorded: elevation of the liver enzyme AST”; in series [5] (setting [9]), “elevation of the liver enzyme AST”. Moreover, the “liver enzyme ALP” value was “elevation in AST and ALP liver enzymes; also recorded: elevation of the liver enzyme ALP” in series [5] (FIG. 8A, MVC, alone or together); “elevation of the liver enzyme ALP” in series [5] (FIG. 8B, MK-0812).
In the case of maraviroc [MVC], the liver fibrosis entry in series [6] is recorded as “Reducing liver fibrosis has been observed”. In addition, the NAS score result in series [5] (FIG. 1A, maraviroc 45 mg/kg once daily orally, OCA 30 mg/kg once daily, 4 wks) is reported as “modest reduction of NAS scores”; in series [5] (FIG. 1A, maraviroc 45 mg/kg once daily orally, OCA 30 mg/kg once daily, 4 wks, listed as maravoric), “limited effect on the NAS score”. Further, the “fibrosis evidenced by staining of collagen (liver histology)” value in series [5] (FIG. 2A, maraviroc 45 mg/kg, OCA 30 mg/kg once daily, 4 wks) is reported as “reduction of fibrosis”; in series [5] (FIG. 2A, maraviroc 45 mg/kg, OCA 30 mg/kg once daily, 4 wks, listed as maraviroc), “effective in reducing fibrosis; also recorded: more effective than OCA in reducing fibrosis”. For the same compound, in series [5] (FIG. 3A, maraviroc 45 mg/kg, OCA 30 mg/kg once daily, 4 wks), the fibrosis score entry was “reduction of fibrosis score”. Besides, in series [5] (FIG. 4A, maraviroc 45 mg/kg, OCA 30 mg/kg once daily, 4 wks), the liver inflammation result is “reduction of liver inflammation”. Further, the hepatocyte ballooning score result in series [5] (FIG. 5A, maraviroc 45 mg/kg, OCA 30 mg/kg once daily, 4 wks) is listed as “reduction of the hepatocyte ballooning score”. Moreover, in series [5] (FIG. 6A, maraviroc 45 mg/kg, OCA 30 mg/kg once daily, 4 wks), the steatosis entry is on record as “marginal effect on steatosis”. Further, the “NAS score and fibrosis” value in series [7] was “effective in an animal model for reducing NAS score and fibrosis”.
`CO[C@@H]1COCC[C@@H]1N[C@@H]1CC[C@@](C(=O)N2CCc3ncc(C(F)(F)F)cc3C2)(C(C)C)C1` [MK-0812]: the NAS score entry in series [5] (FIG. 1B, OCA and MK-0812 (10 mg twice daily)) was “modest reduction of NAS scores; also recorded: little effect”. For the same compound, the “fibrosis evidenced by staining of collagen (liver histology)” value in series [5] (FIG. 2B, OCA and MK-0812) is on record as “reduction of fibrosis”. Further, in series [5] (FIG. 3B to 7B), the “results in the NASH model when a CCR2 antagonist was used instead of MVC” value is reported as “Comparable results”. The fibrosis score entry in series [5] (FIG. 3B, OCA and MK-0812, combination with half dose OCA and MK-0812 10 mg twice daily) is “reduction of fibrosis score”. Besides, the liver inflammation result in series [5] (FIG. 4B, OCA and MK-0812) was “reduction of liver inflammation”. Moreover, the hepatocyte ballooning score result in series [5] (FIG. 5B, OCA and MK-0812) is listed as “reduction of hepatocyte ballooning score”. The steatosis entry in series [5] (FIG. 6B, full dose OCA, MK-0812 alone) is given as “no apparent effect on steatosis”. Further, the “liver enzyme AST” value in series [5] (setting [9]) is reported as “not observed”.
As to `CCCCOCCOc1ccc(-c2ccc3c(c2)/C=C(/C(=O)Nc2ccc([S@@+]([O-])Cc4cncn4CCC)cc2)CCCN3CC(C)C)cc1` [cenicriviroc], in series [8], the “effect on NASH” value is “marginal effect on NASH” and the effect on fibrosis result is given as “relatively more significant effect on fibrosis”.

Values taken from patent publication US11160813B2, “Combination therapy for nonalcoholic steatohepatitis (NASH) and liver fibrosis” (Modunex Bio Corp., priority 2016, dated 2021).
